What is called IC50 is the concentration that inhibits the measured activity by half.

The results in this text go back to patent publication US20240239801A1, “PYRIMIDO[5,4,D]PYRIMIDINE COMPOUNDS, COMPOSITIONS COMPRISING THEM AND USES THEREOF” (Université de Montréal, priority 2021, published 2024).

In one assay the target is CRAF (Homo sapiens, UniProt P04049). The experiment in a line: CRAF kinase activity assay (ADP-Glo). Conditions: Table 3. In kind it is biochemical. On the procedure: (§1) Compound preparation: solid samples of each substances in 1dram vials were suspended in DMSO (Fisher Scientific) at a stock concentration of 20 mM. Stocks were kept at −20° C. and protected from light. If solubility of the compound at 20 mM appeared to be an issue, the initial concentration of the DMSO stock was changed to 10 mM or 5 mM.
(§2) In vitro enzymatic reactions were used for evaluating compounds intrinsic activity against BRAF, CRAF and ARAF. For BRAF and CRAF, 0.375 nM of purified GST-tagged kinases (cat #B4062-10UG and cat #R1656-10UG respectively from Millipore Sigma) were incubated with 75 nM of kinase-dead MEK1 substrate (cat #40075; BPS Bioscience) in the presence of 10 μM of Ultrapure ATP (cat #V9102; Promega; part V915A) with and without the test compound in a buffer containing 50 mM HEPES pH 7.5, 10 mM MgCl2, 1 mM EDTA, 0.01% Brij-35 and 2 mM DTT. Separate reactions were performed with the MEK1 substrate and ATP as a blank control. ARAF, kinase reactions were rigorously the same with the exception that kinase concentration was raised to 3.75 nM (cat #1768-0000-1; Reaction Biology).
(§3) For compound treatment, 5 μL/well of test substance solution are placed in a 384-well proxyplate (Perkin Elmer) and mixed with 2× concentrated kinase reactions. The dilution series is selected so that nine concentrations cover a range from 100 nM to 0.01 nM. […] The final concentration of DMSO in the assay is set at 0.05%.
(§4) BRAF and CRAF kinase reactions were carried out for a total of 2 hours at 30° C. and then stopped by ½ dilution in ADP-Glo Reagent (cat #V9102; Promega; part V912C). Reactions were then incubated for 1 h at room temperature before addition of one volume of Kinase Detection Reagent (cat #V9102; Promega; part V917A). Plates were then equilibrated at room temperature for 30 minutes before detection of luminescence on a Synergy Neo2 plate reader (Biotek). The effect of each compound dilution on BRAF and CRAF kinase activity was expressed as % inhibition and calculated as follows. First, the internal 100% inhibition control (average of luminescence in kinase reactions comprising kinase dead MEK1 substrate alone) was subtracted from each data point. The average of DMSO (vehicle) controls (set as 0% inhibition) was established and used to calculate % inhibition:
(§5) IC50 values were obtained by plotting the kinase inhibition values and fitting the dose-activity curves using a log(agonist) versus response−variable slope (four parameters) function using either GraphPadPrism (V7.0) or Dotmatics Screening Ultra platform. Standards included in the ARAF kinase assay were Belvarafenib (MedChem Express cat #HY-109080; CAS #1446113-23-0), LXH254 (MedChem Express cat #HY-112089; CAS #1800398-38-2) and BGB283 (cat #HY-18957; CAS #1446090-79-4).
(In general: ADP-Glo turns the ADP formed in a reaction into a luminescent signal.)

The target of another assay is T1, BRAF (Homo sapiens, UniProt P15056).
T1 construct: GST; purchased Millipore Sigma B4062-10UG
The experiment in a line: BRAF kinase activity assay (ADP-Glo). In kind it is biochemical. Conditions: Table 3. Here is the method:
as §1, §2, §3, §4, §5

The next assay concerns HCT116 pERK. The experiment in a line: Phospho-ERK inhibition, AlphaLISA SureFire Ultra p-ERK 1/2. In kind it is cell-based, human. Conditions: Table 3; for IC50: 1 h treatment; for HCT116 (Ymin %): lowest value of the pERK IC50 curve. Summed up: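 Cells plated in RPMI-1640 with 5% FBS, held overnight, then exposed 1 h to ten-point compound dilutions (top 30 or 10 μM down to 0.33 nM; 0.5% DMSO). Lysates read for p-ERK1/2 (Thr202/Tyr204) by AlphaLISA; % inhibition relative to DMSO after subtracting a 1 μM trametinib background; IC50 from four-parameter fit.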

Each structure is given as a SMILES string. A value given as a limit tells only on which side of the number the result lay.

Chain of CRAF (P04049 whole entry): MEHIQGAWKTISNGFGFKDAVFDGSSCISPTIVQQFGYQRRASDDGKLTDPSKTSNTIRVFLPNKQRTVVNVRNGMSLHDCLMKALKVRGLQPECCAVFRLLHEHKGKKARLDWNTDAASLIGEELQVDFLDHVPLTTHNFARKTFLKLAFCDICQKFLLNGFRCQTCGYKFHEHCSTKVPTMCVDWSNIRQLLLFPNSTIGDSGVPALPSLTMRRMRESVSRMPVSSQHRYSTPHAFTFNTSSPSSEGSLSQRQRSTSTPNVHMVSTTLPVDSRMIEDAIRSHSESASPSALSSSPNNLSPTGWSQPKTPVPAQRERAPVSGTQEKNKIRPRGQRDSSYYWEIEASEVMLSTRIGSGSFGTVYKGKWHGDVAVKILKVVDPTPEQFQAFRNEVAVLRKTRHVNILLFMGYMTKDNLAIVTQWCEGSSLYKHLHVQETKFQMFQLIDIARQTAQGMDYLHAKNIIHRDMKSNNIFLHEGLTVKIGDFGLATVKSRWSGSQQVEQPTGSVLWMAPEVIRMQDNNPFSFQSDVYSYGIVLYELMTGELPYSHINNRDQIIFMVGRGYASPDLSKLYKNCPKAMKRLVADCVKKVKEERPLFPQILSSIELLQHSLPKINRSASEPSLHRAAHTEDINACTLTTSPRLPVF
T1 sequence (P15056 whole entry): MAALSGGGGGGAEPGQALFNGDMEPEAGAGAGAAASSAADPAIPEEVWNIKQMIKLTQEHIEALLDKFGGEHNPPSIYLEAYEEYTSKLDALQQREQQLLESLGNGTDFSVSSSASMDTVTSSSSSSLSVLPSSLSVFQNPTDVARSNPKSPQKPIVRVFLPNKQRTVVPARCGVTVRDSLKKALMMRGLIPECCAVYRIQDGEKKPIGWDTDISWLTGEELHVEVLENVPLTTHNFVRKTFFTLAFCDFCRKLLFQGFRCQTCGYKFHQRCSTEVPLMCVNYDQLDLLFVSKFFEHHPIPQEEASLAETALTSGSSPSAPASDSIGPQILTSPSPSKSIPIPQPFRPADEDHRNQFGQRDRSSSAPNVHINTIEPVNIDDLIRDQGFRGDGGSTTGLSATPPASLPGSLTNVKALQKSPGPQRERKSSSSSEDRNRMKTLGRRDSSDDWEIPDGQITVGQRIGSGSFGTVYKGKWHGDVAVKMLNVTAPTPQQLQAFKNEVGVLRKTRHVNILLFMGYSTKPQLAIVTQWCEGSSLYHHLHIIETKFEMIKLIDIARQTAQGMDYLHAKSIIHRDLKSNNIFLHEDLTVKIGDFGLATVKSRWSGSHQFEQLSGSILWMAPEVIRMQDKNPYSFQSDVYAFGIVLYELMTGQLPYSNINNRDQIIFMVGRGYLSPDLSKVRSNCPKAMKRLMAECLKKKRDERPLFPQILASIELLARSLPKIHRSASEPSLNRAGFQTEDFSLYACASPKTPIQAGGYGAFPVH

On to `COC1CCN(c2cccc3c2ncn3-c2ncc3ncnc(Nc4c(F)ccc(NS(=O)(=O)c5cccc(Cl)c5Cl)c4F)c3n2)CC1` [Example 131], for which the results for the IC50 on CRAF, on BRAF and with HCT116 pERK were 0.01 to 0.05 µM, 0.001 to 0.01 µM and < 0.5 µM, respectively. Moreover, the “HCT116 (Ymin %)” value in the assay with HCT116 pERK is reported as −4%.
`N#CC1CCN(c2cccc3c2ncn3-c2ncc3ncnc(Nc4c(F)ccc(NS(=O)(=O)c5cccc(Cl)c5Cl)c4F)c3n2)CC1` [Example 132]: the IC50 at CRAF was < 0.01 µM; at BRAF, 0.001 to 0.01 µM; in the assay with HCT116 pERK it was < 0.5 µM. Further, the “HCT116 (Ymin %)” value in the assay on HCT116 pERK was −4%.
In the same order, the values of `CCC1(O)CCN(c2cccc3c2ncn3-c2ncc3ncnc(Nc4c(F)ccc(NS(=O)(=O)c5cccc(Cl)c5Cl)c4F)c3n2)CC1` [Example 133] are < 0.01 µM, 0.001 to 0.01 µM, < 0.5 µM and −6%.
For the compound `CN(CCO)c1cccc2c1ncn2-c1ncc2ncnc(Nc3c(F)ccc(NS(=O)(=O)c4cccc(Cl)c4Cl)c3F)c2n1` [Example 134], the values for the IC50 at CRAF, on BRAF and in the assay on HCT116 pERK were < 0.01 µM, 0.001 to 0.01 µM and < 0.5 µM, respectively. Besides, the “HCT116 (Ymin %)” value in the assay on HCT116 pERK is recorded as 8%.
On to `N#CC1(c2cccc3c2nnn3-c2ncc3ncnc(Nc4c(F)ccc(NS(=O)(=O)c5cccc(Cl)c5Cl)c4F)c3n2)CC1` [Example 135], for which the IC50 at CRAF was < 0.01 µM; at BRAF, 0.001 to 0.01 µM; in the assay with HCT116 pERK (Homo sapiens, HCT-116), 0.5 to 1 µM.
For the compound `CCC1(O)CCN(c2cccc3c2nnn3-c2ncc3ncnc(Nc4c(F)ccc(NS(=O)(=O)c5cccc(Cl)c5Cl)c4F)c3n2)CC1` [Example 136], the results for the IC50 at CRAF, at BRAF and with HCT116 pERK were < 0.01 µM, 0.001 to 0.01 µM and < 0.5 µM, respectively. The “HCT116 (Ymin %)” value in the assay with HCT116 pERK turned out to be 19%.
For the compound `COCCOc1cccc2c1nnn2-c1ncc2ncnc(Nc3c(F)ccc(NS(=O)(=O)c4cccc(Cl)c4Cl)c3F)c2n1` [Example 137], the IC50 on CRAF was < 0.01 µM; on BRAF it was 0.001 to 0.01 µM; with HCT116 pERK (Homo sapiens, HCT-116) it was < 0.5 µM.
In the case of `O=S(=O)(Nc1ccc(F)c(Nc2ncnc3cnc(-n4nnc5c(N6CCC7(CCCO7)CC6)cccc54)nc23)c1F)c1cccc(Cl)c1Cl` [Example 138], the IC50 on CRAF was 0.01 to 0.05 µM; at BRAF, > 0.01 µM; in the assay on HCT116 pERK, < 0.5 µM. Moreover, the “HCT116 (Ymin %)” value in the assay on HCT116 pERK was 1%.
The matching figures for `O=S(=O)(Nc1ccc(F)c(Nc2ncnc3cnc(-n4nnc5c(N6CCN(CCO)CC6)cccc54)nc23)c1F)c1cccc(Cl)c1Cl` [Example 139]: < 0.01 µM, < 0.001 µM, < 0.5 µM and 2%.
Turning to `O=S(=O)(Nc1ccc(F)c(Nc2ncnc3cnc(-n4cnc5c(N6CC(CF)C6)cccc54)nc23)c1F)c1cccc(Cl)c1Cl` [Example 140], the values for the IC50 at CRAF, on BRAF and with HCT116 pERK were 0.01 to 0.05 µM, > 0.01 µM and < 0.5 µM, respectively. Further, the “HCT116 (Ymin %)” value with HCT116 pERK is listed as −16%.
In the same order, the values of `CCS(=O)(=O)c1cn(-c2ncc3ncnc(Nc4c(F)ccc(NS(=O)(=O)c5cccc(Cl)c5Cl)c4F)c3n2)c2ccccc12` [Example 141] are 0.01 to 0.05 µM, 0.001 to 0.01 µM, < 0.5 µM and −3%.
Consider `O=S(=O)(Nc1ccc(F)c(Nc2ncnc3cnc(-n4cc(S(=O)(=O)C5CCOCC5)c5ccccc54)nc23)c1F)c1cccc(Cl)c1Cl` [Example 142], for which the half-inhibitory concentration (IC50) at CRAF was < 0.01 µM; on BRAF it was < 0.001 µM; in the assay with HCT116 pERK, < 0.5 µM. The “HCT116 (Ymin %)” value in the assay on HCT116 pERK is on record as −15%.
As to `O=S(=O)(Cc1ccncc1)c1cn(-c2ncc3ncnc(Nc4c(F)ccc(NS(=O)(=O)c5cccc(Cl)c5Cl)c4F)c3n2)c2ccccc12` [Example 143], the IC50 on CRAF was 0.01 to 0.05 µM; on BRAF it was 0.001 to 0.01 µM; in the assay with HCT116 pERK, < 0.5 µM. In the assay on HCT116 pERK, the “HCT116 (Ymin %)” value is −7%.
With `O=S(=O)(CC1CCOCC1)c1cn(-c2ncc3ncnc(Nc4c(F)ccc(NS(=O)(=O)c5cccc(Cl)c5Cl)c4F)c3n2)c2ccccc12` [Example 144], the half-maximal inhibitory concentration (IC50) on CRAF was 0.01 to 0.05 µM; at BRAF, 0.001 to 0.01 µM; in the assay on HCT116 pERK, < 0.5 µM. For the same compound, the “HCT116 (Ymin %)” value in the assay on HCT116 pERK is reported as −9%.
For the compound `CN(C)C1CCN(c2cccc3c2ncn3-c2ncc3ncnc(Nc4c(F)ccc(NS(=O)(=O)c5cccc(Cl)c5Cl)c4F)c3n2)CC1` [Example 145], the figures for the IC50 on CRAF, on BRAF and in the assay on HCT116 pERK were < 0.01 µM, < 0.001 µM and < 0.5 µM, respectively. In addition, the “HCT116 (Ymin %)” value in the assay with HCT116 pERK is −8%.
In the same order, the values of `O=S(=O)(Nc1ccc(F)c(Nc2ncnc3cnc(-n4cnc5c(N6CCN(CCO)CC6)cccc54)nc23)c1F)c1cccc(Cl)c1Cl` [Example 146] are < 0.01 µM, < 0.001 µM, < 0.5 µM and −9%.
In the same order, the values of `O=S(=O)(Nc1ccc(F)c(Nc2ncnc3cnc(-n4cnc5c(N6CC(CCO)C6)cccc54)nc23)c1F)c1cccc(Cl)c1Cl` [Example 147] are 0.01 to 0.05 µM, 0.001 to 0.01 µM, < 0.5 µM and −9%.
In the same order, the values of `CCc1ccccc1S(=O)(=O)Nc1ccc(F)c(Nc2ncnc3cnc(-n4cnc5ccccc54)nc23)c1F` [Example 148] are 0.01 to 0.05 µM, > 0.01 µM, 1 to 10 µM and −1%.
With `CCc1ccccc1S(=O)(=O)Nc1ccc(F)c(Nc2ncnc3cnc(-n4cnc5c(N6CCC(O)(CC)CC6)cccc54)nc23)c1F` [Example 149], the IC50 at CRAF is 0.01 to 0.05 µM; on BRAF, > 0.01 µM; in the assay on HCT116 pERK it was < 0.5 µM. For the same compound, the “HCT116 (Ymin %)” value with HCT116 pERK was 4%.
In the same order, the values of `O=S(=O)(Nc1ccc(F)c(Nc2ncnc3cnc(-n4cnc5ccccc54)nc23)c1F)c1cccc2c1OC(F)(F)O2` [Example 150] are 0.01 to 0.05 µM, 0.001 to 0.01 µM, 1 to 10 µM and −8%.
In the same order, the values of `CCC1(O)CCN(c2cccc3c2ncn3-c2ncc3ncnc(Nc4c(F)ccc(NS(=O)(=O)c5cccc6c5OC(F)(F)O6)c4F)c3n2)CC1` [Example 151] are 0.01 to 0.05 µM, 0.001 to 0.01 µM, < 0.5 µM and 10%.
In the same order, the values of `Cc1cccc(S(=O)(=O)Nc2ccc(F)c(Nc3ncnc4cnc(-n5cnc6ccccc65)nc34)c2F)c1Cl` [Example 152] are > 0.05 µM, 0.001 to 0.01 µM, 1 to 10 µM and −15%.
Regarding `CCC1(O)CCN(c2cccc3c2ncn3-c2ncc3ncnc(Nc4c(F)ccc(NS(=O)(=O)c5cccc(C)c5Cl)c4F)c3n2)CC1` [Example 153], the IC50 at CRAF is 0.01 to 0.05 µM; at BRAF, 0.001 to 0.01 µM; in the assay on HCT116 pERK, < 0.5 µM. In the assay on HCT116 pERK, the “HCT116 (Ymin %)” value is −6%.
The matching figures for `Cc1c(S(=O)(=O)Nc2ccc(F)c(Nc3ncnc4cnc(-n5cnc6ccccc65)nc34)c2F)ccc(F)c1F` [Example 154]: > 0.05 µM, 0.001 to 0.01 µM, 0.5 to 1 µM and 3%.
With `CCC1(O)CCN(c2cccc3c2ncn3-c2ncc3ncnc(Nc4c(F)ccc(NS(=O)(=O)c5ccc(F)c(F)c5C)c4F)c3n2)CC1` [Example 155], the figures for the IC50 on CRAF, on BRAF and with HCT116 pERK were > 0.05 µM, 0.001 to 0.01 µM and < 0.5 µM, respectively. Moreover, the “HCT116 (Ymin %)” value with HCT116 pERK was −8%.
Turning to `O=S(=O)(Nc1ccc(F)c(Nc2ncnc3cnc(-n4cnc5ccccc54)nc23)c1F)c1cccc(Cl)c1C(F)(F)F` [Example 156], the IC50 at CRAF is < 0.01 µM; on BRAF, 0.001 to 0.01 µM; in the assay on HCT116 pERK, 0.5 to 1 µM.
